# According to patent publication US8227406B2, “Antimicrobial peptides” (Dermagen AB, priority 2006, dated 2012):
# Where “and” joins values, the source holds several entries; their conditions need not be identical. Equal entries are not always repeated.
# Assays:
# [1] = tested on: Eschericia coli ATCC25922; assay: Radial diffusion assay (RDA), E. coli; assay type: cell-based, Escherichia coli; set-up: Data (RDA antimicrobial activity, single replicates) / Mean (RDA antimicrobial activity): unit not given here; conditions: for Data (RDA antimicrobial activity, single replicates) / Mean (RDA antimicrobial activity): E. coli; for Data (RDA antimicrobial activity, single replicates): individual replicate; for Mean (RDA antimicrobial activity): mean of 3
# Description: (§1) Peptides. Peptides were from Sigma-Genosys, generated by a peptide synthesis platform (PEPscreen®, Custom Peptide Libraries, SigmaGenosys). Yield was ˜1-6 mg, and peptide length 20 amino acids. MALDI-ToF Mass Spectrometry was perfomed on these peptides. Average Crude Purity of 20mers was ˜60%. Peptides were supplied lyophilized and in a 96-well tube rack. Prior to biological testing the PEPscreen peptides were diluted in dH2O (5 mM stock), and stored at −20 C. This stock solution was used for the subsequent experiments.
# (§2) Eschericia coli ATCC25922, Staphylococcus aureus ATCC29213, and the fungal isolate Candida albicans ATCC90028 were obtained from the Department of Bacteriology, Lund University Hospital.
# (§3) Radial diffusion assays (RDA) were performed essentially as described earlier (Lehrer, R. I., Rosenman, M., Harwig, S. S., Jackson, R. & Eisenhauer, P. (1991) Ultrasensitive assays for endogenous antimicrobial polypeptides, J Immunol Methods. 137, 167-73). Briefly, bacteria (E. coli, S. aureus) or fungi (C. albicans) were grown to midlogarithmic phase in 10 ml of full-strength (3% w/v) trypticase soy broth (TSB) (Becton-Dickinson, Cockeysville, Md.). The microorganisms were washed once with 10 mM Tris, pH 7.4. 4×10^6 bacterial cfu or 1×10^5 fungal cfu was added to 5 ml of the underlay agarose gel, consisting of 0.03% (w/v) TSB, 1% (w/v) low-electroendoosmosistype (Low-EEO) agarose (Sigma, St Louise Mo.) and a final concentration of 0.02% (v/v) Tween 20 (Sigma). The underlay was poured into a Ø 85 mm petri dish. After agarose solidified, 4 mm-diameter wells were punched and 6 μl of test sample was added to each well. Plates were incubated at 37° C. for 3 hours to allow diffusion of the peptides. The underlay gel was then covered with 5 ml of molten overlay (6% TSB and 1% Low-EEO agarose in dH2O). Antimicrobial activity of a peptide is visualized as a clear zone around each well after 18-24 hours of incubation at 37° C. for bacteria and 28° C. for Candida albicans. Other examples of peptides that were screened and found to show an increased effect against the above mentioned microorgansism are listed below. Some of the results are found in table 1c showing the effects against C. albicans, table 1d E. coli and table 1e S. aureus.
# [2] = tested on: Candida albicans ATCC90028; assay: Radial diffusion assay (RDA), C. albicans; assay type: cell-based; set-up: unit not given here; conditions: for RDA Mean, C. albicans / RDA Data (single replicates), C. albicans: Table 1c; for RDA Data (single replicates), C. albicans: individual values
# Description: as §1, §2, §3
# erythrocytes = assay: Hemolysis assay; assay type: cell-based; conditions: % of TritonX-100 induced hemolysis; erythrocytes 1 h at 37° C.; peptides (3-60 μM)
# Description: EDTA-blood was centrifuged at 800 g for 10 min, whereafter plasma and buffy coat were removed. The erythrocytes were washed three times and resuspended in 5% PBS, pH 7.4. The cells were then incubated with end-over-end rotation for 1 h at 37° C. in the presence of peptides (3-60 μM). 2% Triton X-100 (Sigma-Aldrich) served as positive control. The samples were then centrifuged at 800 g for 10 min. The absorbance of hemoglobin release was measured at λ 540 nm and is in the plot expressed as % of TritonX-100 induced hemolysis (Table 1a).
# [3] = tested on: Staphylococcus aureus ATCC29213; assay: Radial diffusion assay (RDA), S. aureus; assay type: cell-based; set-up: Data (RDA antimicrobial activity, single replicates) / Mean (RDA antimicrobial activity): unit not given here; conditions: for Data (RDA antimicrobial activity, single replicates) / Mean (RDA antimicrobial activity): S. aureus; for Data (RDA antimicrobial activity, single replicates): individual replicate; for Mean (RDA antimicrobial activity): mean of 3
# Description: as §1, §2, §3
# [4] = Table 1b, 10 mM Tris Hcl (pH 7.4)
molecule,measurement,setting,value
"CC[C@H](C)[C@H](NC(=O)[C@H](CCCCN)NC(=O)[C@H](CCC(=O)O)NC(=O)[C@H](CCCCN)NC(=O)[C@H](CO)NC(=O)[C@H](CCCCN)NC(=O)[C@H](CCCNC(=N)N)NC(=O)[C@H](Cc1ccccc1)NC(=O)[C@H](Cc1ccccc1)NC(=O)[C@H](CC(=O)O)NC(=O)CNC(=O)[C@H](CC(C)C)NC(=O)[C@@H](N)CC(C)C)C(=O)NCC(=O)N[C@@H](CCCCN)C(=O)N[C@@H](CCC(=O)O)C(=O)N[C@@H](Cc1ccccc1)C(=O)N[C@@H](CCCCN)C(=O)N[C@@H](CCCNC(=N)N)C(=O)N[C@H](C(=O)N[C@H](C(=O)N[C@@H](CCC(N)=O)C(=O)N[C@@H](CCCNC(=N)N)C(=O)N[C@H](C(=O)N[C@@H](CCCCN)C(=O)N[C@@H](CC(=O)O)C(=O)N[C@@H](Cc1ccccc1)C(=O)N[C@@H](CC(C)C)C(=O)N[C@@H](CCCNC(=N)N)C(=O)N[C@@H](CC(N)=O)C(=O)N[C@@H](CC(C)C)C(=O)N[C@H](C(=O)N1CCC[C@H]1C(=O)N[C@@H](CCCNC(=N)N)C(=O)N[C@H](C(=O)N[C@@H](CCC(=O)O)C(=O)N[C@@H](CO)C(=O)O)[C@@H](C)O)C(C)C)[C@@H](C)CC)C(C)C)[C@@H](C)CC [LL-37, reference compound]","E.coli ATCC 25922 Mean, Ingrowth* counted","[1]; Table 1a, RDA clear zone, ingrowth counted",6.53
same,"E.coli ATCC 25922 Mean, Ingrowth not counted","[1]; Table 1a, RDA clear zone, ingrowth not counted",0.653
same,RDA values (mm) E. coli ATCC 25922,[1]; [4],7.55 mm
same,Candida albicans ATCC 90028 Mean,"[2]; Table 1a, RDA clear zone",4.890
same,Hemolysis (%) Mean,erythrocytes,21.464%
same,S. aureus ATCC 29213 Mean,"[3]; Table 1a, RDA clear zone",4.660
same,RDA values (mm) S. aureus ATCC 29213,[3]; [4],3.23 mm
PKRKKKGGKNGKNRRNRKKKNWWW [PKR-21-WWW],"Data (RDA antimicrobial activity, single replicates)",[1]; peptide 0.1 μM,0
same,Mean (RDA antimicrobial activity),[1]; peptide 0.1 μM,0.00
same,"Data (RDA antimicrobial activity, single replicates)",[1]; peptide 0.5 μM,1.26 and 1.05 and 0.84
same,Mean (RDA antimicrobial activity),[1]; peptide 0.5 μM,1.05
same,"Data (RDA antimicrobial activity, single replicates)",[1]; peptide 1 μM,3.6 and 2.59 and 3.49
same,Mean (RDA antimicrobial activity),[1]; peptide 1 μM,3.23
same,"Data (RDA antimicrobial activity, single replicates)",[1]; peptide 5 μM,4.99 and 5.03 and 4.75
same,Mean (RDA antimicrobial activity),[1]; peptide 5 μM,4.92
same,"Data (RDA antimicrobial activity, single replicates)",[1]; peptide 10 μM,5.86 and 5.87 and 6.13
same,Mean (RDA antimicrobial activity),[1]; peptide 10 μM,5.95
same,"Data (RDA antimicrobial activity, single replicates)",[1]; peptide 50 μM,7.71 and 7.97 and 6.98
same,Mean (RDA antimicrobial activity),[1]; peptide 50 μM,7.55
same,"Data (RDA antimicrobial activity, single replicates)",[1]; peptide 100 μM,7.34 and 8.26 and 7.99
same,Mean (RDA antimicrobial activity),[1]; peptide 100 μM,7.86
same,"RDA Mean, C. albicans",[2]; peptide 0.1 μM,0.00
same,"RDA Data (single replicates), C. albicans",[2]; peptide 0.1 μM,0.00
same,"RDA Mean, C. albicans",[2]; peptide 0.5 μM,0.00
same,"RDA Data (single replicates), C. albicans",[2]; peptide 0.5 μM,0.00
same,"RDA Mean, C. albicans",[2]; peptide 1 μM,0.49
same,"RDA Data (single replicates), C. albicans",[2]; peptide 1 μM,0.55 and 0.42 and 0.51
same,"RDA Mean, C. albicans",[2]; peptide 5 μM,1.14
same,"RDA Data (single replicates), C. albicans",[2]; peptide 5 μM,1.26 and 1.06 and 1.10
same,"RDA Mean, C. albicans",[2]; peptide 10 μM,3.11
same,"RDA Data (single replicates), C. albicans",[2]; peptide 10 μM,3.54 and 2.82 and 2.97
same,"RDA Mean, C. albicans",[2]; peptide 50 μM,5.47
same,"RDA Data (single replicates), C. albicans",[2]; peptide 50 μM,5.84 and 5.44 and 5.13
same,"RDA Mean, C. albicans",[2]; peptide 100 μM,6.97
same,"RDA Data (single replicates), C. albicans",[2]; peptide 100 μM,6.69 and 7.04 and 7.19
same,"Data (RDA antimicrobial activity, single replicates)",[3]; peptide 0.1 μM,0
same,Mean (RDA antimicrobial activity),[3]; peptide 0.1 μM,0.00
same,"Data (RDA antimicrobial activity, single replicates)",[3]; peptide 0.5 μM,0
same,Mean (RDA antimicrobial activity),[3]; peptide 0.5 μM,0.00
same,"Data (RDA antimicrobial activity, single replicates)",[3]; peptide 1 μM,2.56 and 2.59 and 3.06
same,Mean (RDA antimicrobial activity),[3]; peptide 1 μM,2.74
same,"Data (RDA antimicrobial activity, single replicates)",[3]; peptide 5 μM,2.98 and 2.5 and 3.07
same,Mean (RDA antimicrobial activity),[3]; peptide 5 μM,2.85
same,"Data (RDA antimicrobial activity, single replicates)",[3]; peptide 10 μM,3.53 and 4.06 and 3.83
same,Mean (RDA antimicrobial activity),[3]; peptide 10 μM,3.81
same,"Data (RDA antimicrobial activity, single replicates)",[3]; peptide 50 μM,4.21 and 5.14 and 4.23
same,Mean (RDA antimicrobial activity),[3]; peptide 50 μM,4.53
same,"Data (RDA antimicrobial activity, single replicates)",[3]; peptide 100 μM,4.77 and 5.67 and 5.02
same,Mean (RDA antimicrobial activity),[3]; peptide 100 μM,5.15
